From US20180206498A1, “SUBSTITUTED HETEROARYL CARBOXYLIC ACID HYDRAZIDES OR SALTS THEREOF AND USE THEREOF TO INCREASE STRESS TOLERANCE IN PLANTS” (Bayer CropScience Aktiengesellschaft, priority 2015, published 2018)

Legend:
Brassica napus [1] = assay: Drought stress in vivo analysis, efficacy EF from visually scored damage intensity; settings: spray 250 g/ha, scored after recovery phase
Procedure: (§1) Seeds of monocotyledonous and dicotyledonous crop plants were sown in sandy loam in wood-fiber or plastic pots, covered with soil or sand and cultivated in a greenhouse under good growth conditions. The trial plants were treated at the early leaf stage (BBCH10-BBCH13). To assure uniform water supply before commencement of stress, the potted plants were supplied with water by dam irrigation prior to substance application. The inventive compounds formulated in the form of wettable powders (WP) were sprayed onto the green parts of the plants as an aqueous suspension at an equivalent water application rate of 600 I/ha with addition of 0.2% wetting agent (e.g. agrotin). Substance application was followed immediately by stress treatment of the plants. For this purpose, the wood-fiber pots were transferred in plastic inserts in order to prevent them from subsequently drying out too quickly. Drought Stress was Induced by Gradual Drying Out Under the Following Conditions: “Day”: 14 hours with illumination at ˜26-30° C. “Night”: 10 hours without illumination at ˜18-20° C. The duration of the respective stress phases was guided mainly by the condition of the stressed control plants. It was ended (by re-irrigating and transfer to a greenhouse with good growth conditions) as soon as irreversible damage was observed on the stressed control plants. The end of the stress phase was followed by an about 4-7-day recovery phase, during which the plants were once again kept under good growth conditions in a greenhouse. The duration of the recovery phase was guided mainly by when the trial plants had attained a state which enabled visual scoring of potential effects, and is therefore variable. Once this juncture was reached, the intensities of damage were scored visually in comparison to untreated, unstressed controls of the same age. The damage intensity was at first assessed in percent. These values were then used to calculate the efficacy of the test compounds by the following formula: [formula] EF: Efficacy DIs: Damage intensity of the stressed control plants DIh: Damage intensity of the stressed plants treated with test compound The values reported in tables A-1 to A-3 below are mean values from at least one trial with at least two repeats. The effects of selected compounds of the general formula (I) under drought stress on various crop plants were measured. BRSNS=Brassica napus ZEAMX=Zea mays TRZAS=Triticum aestivum

Triticum aestivum [2] = assay: as above; settings: scored after recovery phase
Procedure: as §1

Zea mays = assay: as above; settings: scored after recovery phase
Procedure: as §1

Brassica napus [3] = assay: Drought stress in vivo analysis Part B, appearance vs stressed control plants in categories; design: key: 0: no positive effect; +: slight positive effect; ++: clear positive effect; +++: strong positive effect
Procedure: (§2) Seeds of monocotyledonous and dicotyledonous crop plants were sown in sandy loam in plastic pots, covered with soil or sand and cultivated in a greenhouse under good growth conditions. The test plants are treated at the early leaf stage (BBCH10-BBCH13). To assure uniform water supply before commencement of stress, the potted plants were supplied with water by dam irrigation prior to substance application. The inventive compounds were first formulated as wettable powders (WP) or dissolved in a solvent mixture. The further dilution was effected with water supplemented with 0.2% wetting agent (e.g. agrotin). The finished spray liquor was sprayed onto the green parts of the plant at an equivalent water application rate of 600 I/ha. Substance application was followed immediately by stress treatment of the plants. Drought Stress was Induced by Gradual Drying Out Under the Following Conditions: “Day”: 14 hours with illumination at […]-30° C. “Night”: 10 hours without illumination at 18-20° C. The duration of the respective stress phases was guided mainly by the condition of the stressed control plants. It was ended (by re-irrigating and transfer to a greenhouse with good growth conditions) as soon as irreversible damage was observed on the stressed control plants. The end of the stress phase was followed by an about 4-7-day recovery phase, during which the plants were once again kept under good growth conditions in a greenhouse. The duration of the recovery phase was guided mainly by when the trial plants had attained a state which enabled visual scoring of potential effects, and was therefore variable. Once this juncture had been reached, the appearance of the plants treated with test substances was recorded in comparison to the stressed control plants by the following categories: [table] In order to rule out any influence on the effects observed by any fungicidal or insecticidal action of the test compounds, it was additionally ensured that the tests proceeded without fungal infection or insect infestation. The values reported in tables B-1 and […] below are mean values of the results from at least three repeats. Effects of selected compounds of the general formula (I) under drought stress according to the following tables B-1 and B-2: BRSNS=Brassica napus ZEAMX=Zea mays TRZAS=Triticum aestivum

Triticum aestivum [4] = assay: as above; design: key: 0: no positive effect; +: slight positive effect; ++: clear positive effect; +++: strong positive effect
Procedure: as §2

`CN(C)N(Cc1ccccc1C#N)C(=O)c1ccsc1` [Compound B2-61] was tested, and the “EF [%] (BRSNS)” value (Brassica napus [1]) was greater than 5%, the “EF [%] (TRZAS)” value (Triticum aestivum [2]; spray 20 g/ha) was greater than 5% and the “EF [%] (ZEAMX)” value (Zea mays; spray 250 g/ha) was greater than 5%.

With `CN(C)N(Cc1ccccc1C#N)C(=O)c1ccco1` [Compound C1-61] the “EF [%] (ZEAMX)” value (Zea mays; spray 250 g/ha) was greater than 5%.

In the case of `COc1cc(OC)nc(CN(C(=O)c2c(C(F)F)nn(C)c2F)N(C)C)n1` [Compound A5-30], the “EF [%] (ZEAMX)” value (Zea mays; spray 25 g/ha) is reported as greater than 5%.

`CN(C)N(Cc1ccccn1)C(=O)c1ccsc1` [Compound B2-21] was tested, and the “EF [%] (TRZAS)” value (Triticum aestivum [2]; spray 25 g/ha) was greater than 5% and the “EF [%] (ZEAMX)” value (Zea mays; spray 250 g/ha) was greater than 5%.

For `CN(C)N(Cc1ccccc1Cl)C(=O)c1ccsc1` [Compound B2-1], the “EF [%] (TRZAS)” value (Triticum aestivum [2]; spray 250 g/ha) was greater than 5% and the “EF [%] (ZEAMX)” value (Zea mays; spray 25 g/ha) was greater than 5%.

`O=C(c1cnsn1)N(Cc1cccc(Cl)c1Cl)N1CCCC1` [Compound H2-4] was tested, and the “Effect (BRSNS)” value (Brassica napus [3]; spray 250 g/ha) was “+” and the “Effect (TRZAS)” value (Triticum aestivum [4]; spray 250 g/ha) was “+”.

With `O=C(c1cnsn1)N(Cc1ccc(Cl)nc1)N1CCCC1` [Compound H2-94] the “Effect (BRSNS)” value (Brassica napus [3]; spray 250 g/ha) was “+” and the “Effect (TRZAS)” value (Triticum aestivum [4]; spray 250 g/ha) was “+”.

For `CN(C)N(Cc1ccccn1)C(=O)c1c(C(F)F)nn(C)c1Cl` [Compound A6-21, 5-Chloro-3-(difluoromethyl) —N′,N′,1-trimethyl-N-(pyridin-2-ylmethyl)-1H-pyrazole-4-carbohydrazide], the “EF [%] (BRSNS)” value (Brassica napus [1]) was greater than 5% and the “EF [%] (ZEAMX)” value (Zea mays; spray 250 g/ha) was greater than 5%.

`CN(C)N(Cc1ccccc1C#N)C(=O)c1sc(Cl)nc1Cl` [Compound D6-61] was tested, and the “Effect (BRSNS)” value (Brassica napus [3]; spray 250 g/ha) was “+” and the “Effect (TRZAS)” value (Triticum aestivum [4]; spray 25 g/ha) was “+”.

With `CC(C)c1nnsc1C(=O)N(Cc1ccccc1C#N)N(C)C` [Compound F2-61, 4-Isopropyl-N′,N′-dimethyl-N-(2-cyanobenzyl)-1,2,3-thiadiazole-5-carbohydrazide] the “Effect (BRSNS)” value (Brassica napus [3]; spray 250 g/ha) was “+” and the “Effect (TRZAS)” value (Triticum aestivum [4]; spray 250 g/ha) was “+”.

For `CNN(Cc1ccccc1Cl)C(=O)c1c(C(F)F)nn(C)c1F` [Compound A22-1], the “Effect (BRSNS)” value (Brassica napus [3]; spray 250 g/ha) was “+” and the “Effect (TRZAS)” value (Triticum aestivum [4]; spray 250 g/ha) was “+”.

In the case of `O=C(c1ccns1)N(Cc1ncc(C(F)(F)F)cc1Cl)N1CCCC1` [Compound G9-36], the “Effect (BRSNS)” value (Brassica napus [3]; spray 250 g/ha) is reported as “++” and the “Effect (TRZAS)” value (Triticum aestivum [4]; spray 25 g/ha) is reported as “+”.

`O=C(c1ccns1)N(Cc1ccccc1F)N1CCCC1` [Compound G9-11] was tested, and the “Effect (BRSNS)” value (Brassica napus [3]; spray 250 g/ha) was “+” and the “Effect (TRZAS)” value (Triticum aestivum [4]; spray 250 g/ha) was “+”.

For `CCn1nc(C(F)F)c(C(=O)N(Cc2nccc(Cl)c2Cl)N2CCCC2)c1F` [Compound A24-40], the “Effect (BRSNS)” value (Brassica napus [3]; spray 250 g/ha) was “+” and the “Effect (TRZAS)” value (Triticum aestivum [4]; spray 250 g/ha) was “+”.

For `Cc1c(OCc2ccccc2)nsc1C(=O)N(Cc1cccc(Cl)c1Cl)N(C)C` [Compound G11-4], the “Effect (BRSNS)” value (Brassica napus [3]; spray 250 g/ha) was “++” and the “Effect (TRZAS)” value (Triticum aestivum [4]; spray 250 g/ha) was “+”.

In the case of `Cc1c(OCc2ccccc2)nsc1C(=O)N(Cc1ccc(Cl)nc1)N(C)C` [Compound G11-94], the “Effect (BRSNS)” value (Brassica napus [3]; spray 250 g/ha) is reported as “+” and the “Effect (TRZAS)” value (Triticum aestivum [4]; spray 250 g/ha) is reported as “+”.

In the case of `CN(C)N(Cc1ccccc1Cl)C(=O)c1ccns1` [Compound G8-1], the “Effect (BRSNS)” value (Brassica napus [3]; spray 250 g/ha) is reported as “+” and the “Effect (TRZAS)” value (Triticum aestivum [4]; spray 250 g/ha) is reported as “+”.

`CN(C)N(Cc1ccccc1C#N)C(=O)c1c(C(F)(F)F)nn(C)c1F` [Compound A2-61] was tested, and the “Effect (BRSNS)” value (Brassica napus [3]; spray 25 g/ha) was “++” and the “Effect (TRZAS)” value (Triticum aestivum [4]; spray 25 g/ha) was “+”.
